pIC50: −log10 of the molar value.
Legend:
[1] = target: His tagged CRBN+DDB−DLS7+CXU4 (Homo sapiens (Human), UniProt Q96SW2); experiment: IC50 Measurements for Binding to CRBN/DDBI (HTRF); details: Cy5-labeled Thalidomide probe, one hour incubation
[2] = target: IKZF2 (Homo sapiens (Human), UniProt Q96SW2+Q9UKS7); experiment: IKZF2 HiBit Assay (HEK293T Flp-in-HiBiT cells); assay type: cell-based; details: HEK293T Flp-in-HiBiT cells, 6 hrs; for DC50: read-out: IKZF2 HiBit degradation DC50; for Dmax: HEK-293T, read-out: IKZF2 HiBit degradation Dmax
Sequence of IKZF2 (Q9UKS7 whole entry): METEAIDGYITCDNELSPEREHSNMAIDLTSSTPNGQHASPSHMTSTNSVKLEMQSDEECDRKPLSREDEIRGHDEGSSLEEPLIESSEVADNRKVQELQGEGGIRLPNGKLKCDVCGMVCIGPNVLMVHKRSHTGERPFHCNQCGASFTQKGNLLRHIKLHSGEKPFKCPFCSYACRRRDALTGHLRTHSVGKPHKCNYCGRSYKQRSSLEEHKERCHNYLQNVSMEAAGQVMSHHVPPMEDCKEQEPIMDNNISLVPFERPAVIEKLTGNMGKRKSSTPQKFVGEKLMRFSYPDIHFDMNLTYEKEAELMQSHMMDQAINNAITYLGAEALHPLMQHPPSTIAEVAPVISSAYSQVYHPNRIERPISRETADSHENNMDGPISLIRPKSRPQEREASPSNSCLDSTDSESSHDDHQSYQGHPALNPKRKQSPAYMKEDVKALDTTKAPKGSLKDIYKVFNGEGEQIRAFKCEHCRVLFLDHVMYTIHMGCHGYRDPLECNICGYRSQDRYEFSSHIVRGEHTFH
Sequence of IKZF2 (Q96SW2 whole entry): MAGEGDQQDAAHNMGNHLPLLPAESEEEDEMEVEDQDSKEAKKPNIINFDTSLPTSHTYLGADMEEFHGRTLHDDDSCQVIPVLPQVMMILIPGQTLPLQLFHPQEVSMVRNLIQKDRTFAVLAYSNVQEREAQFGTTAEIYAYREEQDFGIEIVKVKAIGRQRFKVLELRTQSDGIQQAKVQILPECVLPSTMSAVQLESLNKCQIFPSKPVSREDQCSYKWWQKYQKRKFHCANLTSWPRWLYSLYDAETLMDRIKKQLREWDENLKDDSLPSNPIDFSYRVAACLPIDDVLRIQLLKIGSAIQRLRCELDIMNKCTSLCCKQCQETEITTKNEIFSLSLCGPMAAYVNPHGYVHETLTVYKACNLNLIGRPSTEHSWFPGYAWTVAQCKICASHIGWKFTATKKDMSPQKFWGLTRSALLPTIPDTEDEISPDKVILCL
Sequence of IKZF2 (Q16531 whole entry partner): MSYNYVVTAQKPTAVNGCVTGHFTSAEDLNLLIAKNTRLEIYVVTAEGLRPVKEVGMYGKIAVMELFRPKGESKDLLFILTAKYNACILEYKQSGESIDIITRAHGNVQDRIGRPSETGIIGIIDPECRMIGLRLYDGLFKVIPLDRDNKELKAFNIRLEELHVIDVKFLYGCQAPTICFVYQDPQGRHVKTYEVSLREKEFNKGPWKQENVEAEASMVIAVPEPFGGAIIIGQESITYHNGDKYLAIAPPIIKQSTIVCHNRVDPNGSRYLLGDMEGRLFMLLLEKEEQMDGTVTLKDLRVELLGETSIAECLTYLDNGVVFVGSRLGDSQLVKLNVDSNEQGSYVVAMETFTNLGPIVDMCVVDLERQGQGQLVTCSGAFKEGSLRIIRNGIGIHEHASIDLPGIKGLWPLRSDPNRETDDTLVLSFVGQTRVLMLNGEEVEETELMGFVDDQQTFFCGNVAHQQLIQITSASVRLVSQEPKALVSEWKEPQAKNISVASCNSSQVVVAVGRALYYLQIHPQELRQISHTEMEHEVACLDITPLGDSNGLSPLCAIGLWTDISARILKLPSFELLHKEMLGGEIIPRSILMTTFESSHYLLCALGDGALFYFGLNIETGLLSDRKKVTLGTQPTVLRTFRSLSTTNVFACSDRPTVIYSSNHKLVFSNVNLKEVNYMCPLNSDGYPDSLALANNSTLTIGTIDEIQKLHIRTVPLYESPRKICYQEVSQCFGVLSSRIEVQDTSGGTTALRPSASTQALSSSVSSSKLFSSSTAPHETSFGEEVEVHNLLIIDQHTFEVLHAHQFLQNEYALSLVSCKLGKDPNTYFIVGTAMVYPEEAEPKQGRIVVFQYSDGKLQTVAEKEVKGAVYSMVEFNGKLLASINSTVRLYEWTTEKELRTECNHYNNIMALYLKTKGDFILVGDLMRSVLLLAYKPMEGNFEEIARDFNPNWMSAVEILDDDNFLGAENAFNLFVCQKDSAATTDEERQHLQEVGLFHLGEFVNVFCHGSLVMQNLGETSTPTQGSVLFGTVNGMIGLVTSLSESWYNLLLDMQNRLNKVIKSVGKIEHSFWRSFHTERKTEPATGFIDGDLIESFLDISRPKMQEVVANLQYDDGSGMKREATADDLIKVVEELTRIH
Protocol: The HiBiT protein tagging system was applied to modified HEK293T Flp-in-HiBiT cells (polyclone) via a CRISPR/Cas9—mediated insertion of the HiBiT peptide tag (Promega™) to the N-terminus of the IKZF2 gene locus (Neon™ transfection system). Test and reference compounds are diluted from 1 mM at 3 folds for 11 doses. 25 nL of diluted compound is transferred to assay plates (Corning3570) using ECHO550, the final DMSO concentration @0.1%. The cells are seeded in 3000/[…]/well to compound plates. It is then incubated for 6 hrs in TC incubator. The amount of Nano-Glo® HiBiT lytic reagent needed to perform the desired experiments is calculated. The Nano-Glo® HiBiT lytic reagent is brought to room temperature. The LgBiT protein is diluted to 1:100 and the Nano-Glo® HiBiT lytic substrate is diluted to 1:50 into an appropriate volume of room temperature Nano-Glo® HiBiT lytic buffer. […] of the detection reagent (or without LgBiT) is dispensed to corresponding well according to the layout. The plate is then shaked for 10 mins at room temperature. After briefly centrifuge, the plate is read on Envision. At the indicated timepoints, the Nano-Glo® HiBiT lytic detection system (Promega™) was utilized for detecting bioluminescence of the HiBiT tag in treated cells: abundance of the tag is proportionate to the level of luminescence. Following normalization to DMSO, dose-response curves were plotted (GraphPad Prism) to determine the concentration points at which 50% of HiBiT-Helios degradation was achieved by each compound. The extent of degradation (range of luminescence) from the highest to lowest concentration points was calculated to determine the Dmax.

[3] = target: IKZF1 (Homo sapiens (Human), UniProt Q13422+Q96SW2); experiment: IKZF1 HiBit Assay (HEK293T Flp-in-HiBiT-IKZF1 stable cell line); assay type: cell-based; details: HEK293T Flp-in-HiBiT-IKZF1 cells, 6 hrs; for DC50: read-out: IKZF1 HiBit degradation DC50; for Dmax: HEK-293T, read-out: IKZF1 HiBit degradation Dmax
Sequence of IKZF1 (Q13422 whole entry): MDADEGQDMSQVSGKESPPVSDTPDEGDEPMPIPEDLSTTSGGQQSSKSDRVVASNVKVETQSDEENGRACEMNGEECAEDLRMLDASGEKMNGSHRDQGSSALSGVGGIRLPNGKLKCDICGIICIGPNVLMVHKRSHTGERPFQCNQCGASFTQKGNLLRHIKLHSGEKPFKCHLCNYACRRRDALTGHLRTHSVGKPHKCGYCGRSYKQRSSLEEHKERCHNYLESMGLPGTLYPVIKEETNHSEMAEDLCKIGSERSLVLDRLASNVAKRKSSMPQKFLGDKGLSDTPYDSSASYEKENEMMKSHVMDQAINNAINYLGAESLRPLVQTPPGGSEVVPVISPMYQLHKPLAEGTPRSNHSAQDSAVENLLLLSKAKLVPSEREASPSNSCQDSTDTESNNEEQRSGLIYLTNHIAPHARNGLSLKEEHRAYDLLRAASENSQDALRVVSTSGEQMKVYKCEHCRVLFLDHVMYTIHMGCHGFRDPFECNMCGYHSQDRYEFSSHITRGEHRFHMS
Sequence of IKZF1 (Q96SW2 whole entry): as the sequence (Q96SW2 whole entry) above
Sequence of IKZF1 (Q16531 whole entry partner): as the sequence (Q16531 whole entry partner) above
Protocol: The HiBiT protein tagging system was applied to modified Cells: modified HEK293T Flp-in-HiBiT-IKZF1 stable cell line (polyclone) via a CRISPR/Cas9—mediated insertion of the HiBiT peptide tag (Promega™) to the N-terminus of the IKZF2 gene locus (Neon™ transfection system).
Test compound from 10 mM and reference compound (CC-92480 from 50 mM and I-57 from 10 mM) are diluted at 3 folds for 11 doses. 25 nL of diluted compound is transferred to assay plates (Corning3571) using ECHO550, the final DMSO concentration @0.1%. The cells are seeded in 3000/[…]/well to compound plates. The plates are incubated for 6 hrs in TC incubator. The amount of Nano-Glo® HiBiT lytic reagent needed to perform the desired experiments is calculated. The Nano-Glo® HiBiT lytic reagent is brought to room temperature. The LgBiT protein is diluted to 1:100 and the Nano-Glo® HiBiT lytic substrate is brought to 1:50 into an appropriate volume of room temperature Nano-Glo® HiBiT lytic buffer. […] of the detection reagent (or without LgBiT) is dispensed to corresponding well according to the layout. The plate is shaked for 10 mins at room temperature. After briefly centrifuging, the plate is read on Envision. At the indicated timepoints, the Nano-Glo® HiBiT lytic detection system (Promega™) was utilized for detecting bioluminescence of the HiBiT tag in treated cells: abundance of the tag is proportionate to the level of luminescence. Following normalization to DMSO, dose-response curves were plotted (GraphPad Prism) to determine the concentration points at which 50% of HiBiT-Ikaros degradation was achieved by each compound. The extent of degradation (range of luminescence) from the highest to lowest concentration points was calculated to determine the Dm.

Sequence of His tagged CRBN+DDB−DLS7+CXU4 (Q96SW2 whole entry): as the sequence (Q96SW2 whole entry) above
Sequence of His tagged CRBN+DDB−DLS7+CXU4 (Q16531 whole entry partner): as the sequence (Q16531 whole entry partner) above

O=C1CC[C@H](N2Cc3c(ccc4c3OCC43CCN(Cc4cnn(-c5ccc(Cl)cc5)c4C(F)(F)F)CC3)C2=O)C(=O)N1 [Compound B1, (S)-3-(1′-((1-(4-chlorophenyl)-5-(trifluoromethyl)-1H-pyrazol-4-yl)methyl)-6-oxo-6,8-dihydro-2H,7H-spiro[furo[2,3-e]isoindole-3,4′-piperidin]-7-yl) piperidine-2,6-dione]
pIC50 [1]: 6.00 to 6.30
DC50 [2]: 1 to 10 nM
Dmax [2]: 40 to 60%
DC50 [3]: 100 to 1000 nM
Dmax [3]: 20 to 40%

O=C1CC[C@H](N2Cc3c(ccc4c3OCC43CCN(Cc4cc(-c5ccc(Cl)cc5)no4)CC3)C2=O)C(=O)N1 [Compound B2, (S)-3-(1′-((3-(4-chlorophenyl)isoxazol-5-yl)methyl)-6-oxo-6,8-dihydro-2H,7H-spiro[furo[2,3-e]isoindole-3,4′-piperidin]-7-yl)piperidine-2,6-dione]
pIC50 [1]: 5.30 to 6.00
DC50 [2]: 1 to 10 nM
Dmax [2]: 60 to 80%
DC50 [3]: 10 to 100 nM
Dmax [3]: 20 to 40%

O=C1CC[C@H](N2Cc3c(ccc4c3OCC43CCN(Cc4cc(-c5ccc(Cl)cc5)ns4)CC3)C2=O)C(=O)N1 [Compound B3, (S)-3-(1′-((3-(4-chlorophenyl)isothiazol-5-yl)methyl)-6-oxo-6,8-dihydro-2H,7H-spiro[furo[2,3-e]isoindole-3,4′-piperidin]-7-yl)piperidine-2,6-dione]
pIC50 [1]: > 7.00
DC50 [2]: 10 to 100 nM
Dmax [2]: 60 to 80%
DC50 [3]: > 1000 nM
Dmax [3]: < 20%

O=C1CC[C@H](N2Cc3c(ccc4c3OCC43CCN(Cc4cn(-c5ccc(Cl)cc5)nc4Cl)CC3)C2=O)C(=O)N1 [Compound B4, (S)-3-(1′-((3-chloro-1-(4-chlorophenyl)-1H-pyrazol-4-yl)methyl)-6-oxo-6,8-dihydro-2H,7H-spiro[furo[2,3-e]isoindole-3,4′-piperidin]-7-yl)piperidine-2,6-dione]
pIC50 [1]: 6.00 to 6.30
DC50 [2]: 1 to 10 nM
Dmax [2]: 60 to 80%
DC50 [3]: > 1000 nM
Dmax [3]: < 20%

O=C1CC[C@H](N2Cc3c(ccc4c3OCC43CCN(Cc4cn(-c5ccc(Cl)cc5)nc4C(F)(F)F)CC3)C2=O)C(=O)N1 [Compound B5, (S)-3-(1′-((1-(4-chlorophenyl)-3-(trifluoromethyl)-1H-pyrazol-4-yl)methyl)-6-oxo-6,8-dihydro-2H,7H-spiro[furo[2,3-e]isoindole-3,4′-piperidin]-7-yl)piperidine-2,6-dione]
pIC50 [1]: 6.30 to 7.00
DC50 [2]: 1 to 10 nM
Dmax [2]: 60 to 80%
DC50 [3]: > 1000 nM
Dmax [3]: < 20%

O=C1CC[C@H](N2Cc3c(ccc4c3OCC43CCN(Cc4cnn(CC5CCOCC5)c4)CC3)C2=O)C(=O)N1 [Compound B6, (S)-3-(6-oxo-1′-((1-((tetrahydro-2H-pyran-4-yl)methyl)-1H-pyrazol-4-yl)methyl)-6,8-dihydro-2H,7H-spiro[furo[2,3-e]isoindole-3,4′-piperidin]-7-yl)piperidine-2,6-dione]
DC50 [2]: 1 to 10 nM
Dmax [2]: 60 to 80%
DC50 [3]: > 1000 nM
Dmax [3]: < 20%

[2H]C([2H])(c1ccc2cn(C)nc2c1)N1CCC2(CC1)COc1c2ccc2c1CN([C@H]1CCC(=O)NC1=O)C2=O [Compound B7, (S)-3-(1′-((2-methyl-2H-indazol-6-yl)methyl-d2)-6-oxo-6,8-dihydro-2H,7H-spiro[furo[2,3-e]isoindole-3,4′-piperidin]-7-yl)piperidine-2,6-dione]
pIC50 [1]: 6.30 to 7.00
DC50 [2]: 1 to 10 nM
Dmax [2]: 60 to 80%
DC50 [3]: > 1000 nM
Dmax [3]: < 20%

O=C1CC[C@@H](N2Cc3c(ccc4c3OCC43CCN(Cc4cccc(-c5cnn(C6COC6)c5)c4)CC3)C2=O)C(=O)N1 [Compound B15, (R)-3-(1′-(3-(1-(oxetan-3-yl)-1H-pyrazol-4-yl)benzyl)-6-oxo-6,8-dihydro-2H,7H-spiro[furo[2,3-e]isoindole-3,4′-piperidin]-7-yl)piperidine-2,6-dione]
DC50 [2]: 1 to 10 nM
Dmax [2]: > 80%
DC50 [3]: > 1000 nM
Dmax [3]: < 20%

O=C1CCC(N2Cc3c(ccc4c3OCC43CCN(Cc4cccc5cn[nH]c45)CC3O)C2=O)C(=O)N1 (stereo not drawn) [Compound B24, 3-(1′-((1H-indazol-7-yl)methyl)-3′-hydroxy-6-oxo-6,8-dihydro-2H,7H-spiro[furo[2,3-e]isoindole-3,4′-piperidin]-7-yl)piperidine-2,6-dione]
DC50 [2]: 10 to 100 nM
Dmax [2]: 60 to 80%
DC50 [3]: > 1000 nM
Dmax [3]: < 20%

O=C1CCC(N2Cc3c(ccc4c3OCC43CCN(Cc4ccccc4)CC3(F)F)C2=O)C(=O)N1 (stereo not drawn) [Compound B25, 3-(1′-benzyl-3′,3′-difluoro-6-oxo-6,8-dihydro-2H,7H-spiro[furo[2,3-e]isoindole-3,4′-piperidin]-7-yl)piperidine-2,6-dione]
DC50 [2]: 1 to 10 nM
Dmax [2]: 60 to 80%
DC50 [3]: 1 to 10 nM
Dmax [3]: 20 to 40%

O=C1CC[C@H](N2Cc3c(ccc4c3OCC43CCN(Cc4cnn(CC5CCS(=O)(=O)CC5)c4)CC3(F)F)C2=O)C(=O)N1 (stereo partly drawn) [Compound B47, (3S)-3-(1′-((1-((1,1-dioxidotetrahydro-2H-thiopyran-4-yl)methyl)-1H-pyrazol-4-yl)methyl)-3′,3′-difluoro-6-oxo-6,8-dihydro-2H,7H-spiro[furo[2,3-e]isoindole-3,4′-piperidin]-7-yl)piperidine-2,6-dione]
DC50 [2]: 10 to 100 nM
Dmax [2]: 60 to 80%
DC50 [3]: > 1000 nM
Dmax [3]: < 20%

O=C1CC[C@H](N2Cc3c(ccc4c3OC[C@@]43CCN(Cc4cccc(-c5cnn(C6COC6)c5)c4)CC3(F)F)C2=O)C(=O)N1 [Compound B54, (S)-3-((R)-3′,3′-difluoro-1′-(3-(1-(oxetan-3-yl)-1H-pyrazol-4-yl)benzyl)-6-oxo-6,8-dihydro-2H,7H-spiro[furo[2,3-e]isoindole-3,4′-piperidin]-7-yl)piperidine-2,6-dione]
DC50 [2]: 1 to 10 nM
Dmax [2]: 60 to 80%
DC50 [3]: > 1000 nM
Dmax [3]: 20 to 40%

O=C1CC[C@H](N2Cc3c(ccc4c3NCC43CCN(Cc4ccccc4)CC3)C2=O)C(=O)N1 [Compound B56, (S)-3-(1-benzyl-6′-oxo-1′,2′,6′,8′-tetrahydro-7′H-spiro[piperidine-4,3′-pyrrolo[3,4-g]indol]-7′-yl)piperidine-2,6-dione]
DC50 [2]: 10 to 100 nM
Dmax [2]: 40 to 60%
DC50 [3]: > 1000 nM
Dmax [3]: < 20%

Cn1cc(-c2cccc(CN3CCC4(CC3)CNc3c4ccc4c3CN([C@H]3CCC(=O)NC3=O)C4=O)c2)cn1 [Compound B57, (S)-3-(1-(3-(1-methyl-1H-pyrazol-4-yl)benzyl)-6′-oxo-1′,2′,6′,8′-tetrahydro-7′H-spiro[piperidine-4,3′-pyrrolo[3,4-g]indol]-7′-yl)piperidine-2,6-dione]
DC50 [2]: 10 to 100 nM
Dmax [2]: 60 to 80%
DC50 [3]: > 1000 nM
Dmax [3]: < 20%

N#Cc1ccc(-n2cc(CN3CCC4(CC3)CNc3c4ccc4c3CN([C@H]3CCC(=O)NC3=O)C4=O)cn2)cc1 [Compound B58, (S)-4-(4-((7′-(2,6-dioxopiperidin-3-yl)-6′-oxo-1′,6′,7′,8′-tetrahydro-2′H-spiro[piperidine-4,3′-pyrrolo[3,4-g]indol]-1-yl)methyl)-1H-pyrazol-1-yl)benzonitrile]
DC50 [2]: 1 to 10 nM
Dmax [2]: 40 to 60%
DC50 [3]: > 1000 nM
Dmax [3]: < 20%

— patent US20250215012A1, “IKZF2 DEGRADERS AND USES THEREOF” (REGENTS OF THE UNIVERSITY OF MICHIGAN, priority 2022, published 2025)
